What was measured:
[1] = system: galactosemic cataract in the rat; assay: Action on the appearance of the galactosemic cataract (rat); format: in vivo; design: appearance of the galactosemic cataract: unit not given here
Experimental: (§1) With the compound bearing the abbreviation ARI 6 the following tests have been carried out in the rat and in the rabbit.
Action on the appearance of the galactosemic cataract (rat)
Effects of the administration of ARI-6 (5 and 25 mg/kg/die, os)
on the appearance of the galactosemic cataract in the rat.
[…] In the brackets the number of animals for each group is indicated.
The diet contains D-galactose 50%.
Effects of the administration of ARI-1 (5 and 25 mg/kg/die, os)

[2] = system: diabetic cataract in the rat; assay: Action on the appearance of the diabetic cataract (rat); format: in vivo; settings: for appearance of the diabetic cataract: Table 5, 25 mg/kg/die per os
Experimental: as §1
Action on the appearance of the diabetic cataract (rat).
Effects of the administration of ARI 6 (25 mg/kg/die, per os)
on the appearance of the diabetic cataract in the rat.
The values are expressed as percentages. Within brackets there are indicated the animals for each group.
Effects of the administration of ARI-1 (25 mg/kg/die, per os)

rat = assay: Toxicity per oral administration repeated in the rat (30 days); format: in vivo; settings: 30 days, 100, 200, 300 mg/kg/die
Description: Toxicity per oral administration repeated in the rat (30 days)--Test protocol:
Compound Doses mg/kg/die

[3] = Acute toxicity of ARI 6 in the mouse; settings: in vivo
[4] = Acute toxicity of ARI 6 in the rat; settings: in vivo
aldose reductase = biological target: T1, aldose reductase (Bos taurus, UniProt P16116); assay: In vitro inhibition of aldose reductase activity of raw extracts from bovine crystalline lens; format: biochemical; settings: glyceraldehyde substrate, NADPH, pH 6.8, 37° C.; read-out: IC50 on the aldose reductase activity of raw extracts originating from bovine crystalline lens
T1 construct: 4 bovine crystalline lenses (8 g) are homogenized by means of Potter in ice bath; from tissue; host or cells: bovine crystalline lens
Experimental: "In vitro" tests have been carried out to evalute the inhibition of the aldose reductase activity, prepared from the extract of bovine crystalline lenses.
PREPARATION OF THE RAW EXTRACTS
4 bovine crystalline lenses (8 g) are homogenized by means of Potter in ice bath with 40 ml of 50 mM phosphate buffer, pH 6.8, containing 2-mercaptoethanol pH ([…]). After centrifugation (12.000×g -20 min-4° C.) the supernatant is brought to 40% saturation with an ammonium sulphate and centrifugated again (14.000×g). The supernatant is then brought to the 80% saturation ((NH4)2 SO4) and, after centrifugation for 20 minutes and at 14.000×g, the sedimented matter is recovered and suspended in 7 ml of phosphate buffer. The enzymatic preparation is dialyzed by ultrafiltration with AMICON ultrafiltration cell.
DOSAGE OF THE ENZYMATIC ACTIVITY
The reference cuvette contains all the several substances apart from the substrate.

SMILES: CN(CC(=O)O)S(=O)(=O)c1ccc2oc3ccc(Cl)cc3c(=O)c2c1 [ARI 6, 7-chloro-2 (N-methyl-N-carboxymethyl) sulfamoylxanthone]
- appearance of the galactosemic cataract ([1]; Table 4, 5 mg/kg/die os, day 5 of diet): 0.0
- appearance of the galactosemic cataract ([1]; Table 4, 5 mg/kg/die os, day 10 of diet): 0.0
- appearance of the galactosemic cataract ([1]; Table 4, 5 mg/kg/die os, day 15 of diet): 0.0
- appearance of the galactosemic cataract ([1]; Table 4, 5 mg/kg/die os, day 20 of diet): 0.0
- appearance of the galactosemic cataract ([1]; Table 4, 5 mg/kg/die os, day 25 of diet): 15.0
- appearance of the galactosemic cataract ([1]; Table 4, 5 mg/kg/die os, day 30 of diet): 20.0
- appearance of the galactosemic cataract ([1]; Table 4, 5 mg/kg/die os, day 35 of diet): 40.0
- appearance of the galactosemic cataract ([1]; Table 4, 5 mg/kg/die os, day 40 of diet): 100.0
- appearance of the galactosemic cataract ([1]; Table 4, 5 mg/kg/die os, day 45 of diet): 100.0
- appearance of the galactosemic cataract ([1]; Table 4, 5 mg/kg/die os, day 50 of diet): 100.0
- appearance of the galactosemic cataract ([1]; Table 4, 25 mg/kg/die os, day 5 of diet): 0.0
- appearance of the galactosemic cataract ([1]; Table 4, 25 mg/kg/die os, day 10 of diet): 0.0
- appearance of the galactosemic cataract ([1]; Table 4, 25 mg/kg/die os, day 15 of diet): 0.0
- appearance of the galactosemic cataract ([1]; Table 4, 25 mg/kg/die os, day 20 of diet): 0.0
- appearance of the galactosemic cataract ([1]; Table 4, 25 mg/kg/die os, day 25 of diet): 0.0
- appearance of the galactosemic cataract ([1]; Table 4, 25 mg/kg/die os, day 30 of diet): 0.0
- appearance of the galactosemic cataract ([1]; Table 4, 25 mg/kg/die os, day 35 of diet): 0.0
- appearance of the galactosemic cataract ([1]; Table 4, 25 mg/kg/die os, day 40 of diet): 15.0
- appearance of the galactosemic cataract ([1]; Table 4, 25 mg/kg/die os, day 45 of diet): 25.0
- appearance of the galactosemic cataract ([1]; Table 4, 25 mg/kg/die os, day 50 of diet): 100.0
- delay for the appearance of the galactosemic cataract ([1]; rat, 5 mg/kg, vs controls): about 20 days
- effect on appearance of the galactosemic cataract (in words) ([1]; rat, higher doses): A more intense effect
- appearance of the diabetic cataract ([2]; day 5 from streptozotocine): 0.0%
- appearance of the diabetic cataract ([2]; day 10 from streptozotocine): 0.0%
- appearance of the diabetic cataract ([2]; day 15 from streptozotocine): 0.0%
- appearance of the diabetic cataract ([2]; day 20 from streptozotocine): 0.0%
- appearance of the diabetic cataract ([2]; day 25 from streptozotocine): 0.0%
- appearance of the diabetic cataract ([2]; day 30 from streptozotocine): 0.0%
- appearance of the diabetic cataract ([2]; day 35 from streptozotocine): 0.0%
- appearance of the diabetic cataract ([2]; day 40 from streptozotocine): 20.0%
- appearance of the diabetic cataract ([2]; day 45 from streptozotocine): 30.0%
- appearance of the diabetic cataract ([2]; day 50 from streptozotocine): 100.0%
- delay of the appearance of the diabetic cataract ([2]; rat, 25 mg/kg, vs controls): about 30 days
- Microscope and hystomorphological examination (rat): no alteration
- death (rat): No death
- Behaviour and general status (rat; vs control group): no variation with respect to the control group
- Biochemical and hematological parameters (rat; vs controls): no significant variation with respect to the controls
- LD50 ([3]; ip, read-out: Acute toxicity in the mouse ip): 1000 mg/kg
- LD50 ([3]; po, per os, read-out: Acute toxicity in the mouse per os): 1000 mg/kg
- LD50 ([4]; ip, read-out: Acute toxicity in the rat ip): 1000 mg/kg
- LD50 ([4]; po, per os, read-out: Acute toxicity in the rat per os): 1000 mg/kg
- IC50 (aldose reductase): 9.2 µM

Source: patent publication US5066676A, “Sulfonamido derivative inhibiting the aldose reductase enzyme system and pharmaceutical compositions containing them” (Laboratori Baldacci SpA, priority 1987, dated 1991)
